Results published in US20210386367A1, “DEVICES AND SYSTEMS FOR GASTROINTESTINAL MICROBIOME DETECTION AND MANIPULATION” (Progenity, Inc., priority 2018, published 2021).
In brackets after ≈: the same amount, converted by molar mass. Like-named read-outs stand apart in the source and are kept apart here.

Assays:
Klebsiella spp. = test: Broth microdilution MIC, 50 clinical isolates (20 K. oxytoca, 30 K. pneumoniae); format: cell-based
Procedure: Minimal inhibitory concentration (MIC) values were determined by broth microdilution or agar dilution in accordance with guidelines from the Clinical and Laboratory Standards Institute (CLSI; (1) “Methods for Dilution Antimicrobial Susceptibility Tests for Bacteria That Grow Aerobically; Approved Standard; 11th ed.” CLSI standard M07-A11, 2018; (2) “Performance Standards for Antimicrobial Susceptibility Testing; Twenty-Eighth Informational Supplement,” CLSI document M100-S28, 2018; and (3) “Methods for Antimicrobial Susceptibility Testing of Anaerobic Bacteria; Approved Standard—Eighth Edition,” CLSI document M11-A8, 2012).
Tested aerobically by broth microdilution: • Escherichia coli, n=50 • Klebsiella spp., n=50 • Pseudomonas aeruginosa, n=50 • Streptococcus spp., n=50 • Staphylococcus aureus, n=50 • Enterococcus faecalis, n=50 • Enterobacter aerogenes, n=50 • Proteus mirabilis, n=50
Broth microdilution testing of aerobic bacteria was conducted in cation-adjusted Mueller Hinton broth (MHBII). For testing streptococci, lysed horse blood (LHB) was added to MHBII broth at a final concentration of 3%. Where LHB was used, it was added after filtering.
Broth microdilution susceptibility testing in 96-well microplates was conducted in accordance with CLSI methods (1) and (2). Automated liquid handlers were used to conduct serial dilutions and liquid transfers, including the Multidrop 384 (Labsystems, Helsinki, Finland), Biomek 2000, and the Biomek FX (Beckman Coulter, Fullerton, Calif.). All wells in columns 2 through 12 of a standard 96-well microdilution plate (Costar 3795) were filled with 150 μL of the appropriate diluent. Then, 300 μL of the test agents were added to the wells of column 1 of the plates at 100× the highest final concentration to be tested. Serial two-fold dilutions were made across the rows through column 11 using the Biomek 2000. The wells of column 12 contained no drug and served as the growth control wells. This plate served as the “mother plate” from which MIC assay plates or “daughter plates” were made.
The daughter plates were loaded with 190 μL per well of the appropriate medium using the Multidrop 384. The daughter plates were created using the Biomek FX which transferred 2 μL of drug solution from each well of a mother plate to each corresponding well of the daughter plate in a single step. A standardized inoculum of each test organism was prepared per CLSI methods (1) to equal a 0.5 McFarland standard, followed by a dilution of 1:20 for aerobes and 1:10 for anaerobes. The plates were then inoculated with 10 μL of the diluted inoculum using the Biomek 2000 from low to high drug concentration, resulting in a final concentration of approximately 5×10^5 CFU/mL per well. An un-inoculated plate was incubated in parallel for each medium for the purpose of assessing solubility of the drug in the test media.
Inoculated plates were stacked 3 or 4 high, covered with a sterile lid on the top plate, placed into boxes with CO2 planchets (streptococci) or plastic bags (all other isolates). Plates were incubated at 35° C. for 16-24 hr in ambient air for aerobes or for 42-48 hr in the anaerobic environment of the Bactron II anaerobe chamber (Sheldon Manufacturing Co.; Cornelius, Oreg.). Following incubation, the microplates were removed from the incubator and viewed from the bottom using a plate viewer. The MIC values were read and recorded as the lowest concentration of drug that inhibited visible growth of the organism as per CLSI methods (1) and (2).

E. coli ATCC 25922 = test: Time-kill assay; format: cell-based, Escherichia coli; details: 2×, 4×, 8× MIC; 2, 6, 24 hr
Bacteroides fragilis = test: Agar dilution MIC, 30 clinical isolates; format: cell-based
Pseudomonas aeruginosa = test: Broth microdilution MIC, 50 clinical isolates; format: cell-based
In short: (§1)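 CLSI broth microdilution in cation-adjusted Mueller Hinton broth, with 3% lysed horse blood added for streptococci, which were incubated with CO2.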

Enterobacter aerogenes = test: Broth microdilution MIC, 50 clinical isolates; format: cell-based
In short: as §1

Proteus mirabilis = test: Broth microdilution MIC, 50 clinical isolates; format: cell-based
In short: as §1

S. pneumoniae ATCC 49619 = details: cited from earlier work
[1] = 30 Bacteroides fragilis clinical isolates

Structure (SMILES): CO[C@H]1/C=C/O[C@@]2(C)Oc3c(C)c(O)c4c(O)c(c5c(nc6cc(C)ccn65)c4c3C2=O)NC(=O)/C(C)=C\C=C\[C@H](C)[C@H](O)[C@@H](C)[C@@H](O)[C@@H](C)[C@H](OC(C)=O)[C@@H]1C [rifaximin]
- MIC50 (Klebsiella spp.): 32 µg/mL (≈ 40.7 µM)
- MIC90 (Klebsiella spp.): > 64 µg/mL
- Mode (Klebsiella spp.): 16 µg/mL
- Cumulative percentage of isolates at MIC (Klebsiella spp.; 8 μg/mL): 10.0%
- Number of test isolates at MIC (Klebsiella spp.; 8 μg/mL): 5
- Cumulative percentage of isolates at MIC (Klebsiella spp.; 16 μg/mL): 46.0%
- Number of test isolates at MIC (Klebsiella spp.; 16 μg/mL): 18
- Cumulative percentage of isolates at MIC (Klebsiella spp.; 32 μg/mL): 64.0%
- Number of test isolates at MIC (Klebsiella spp.; 32 μg/mL): 9
- Cumulative percentage of isolates at MIC (Klebsiella spp.; 64 μg/mL): 80.0%
- Number of test isolates at MIC (Klebsiella spp.; 64 μg/mL): 8
- Cumulative percentage of isolates at MIC (Klebsiella spp.; >64 μg/mL): 100.0%
- Number of test isolates at MIC (Klebsiella spp.; >64 μg/mL): 10
- MIC90 (Klebsiella spp.; listed as RFX): >64 µg/mL
- time-kill kinetics outcome (bactericidal = ≥3 log reduction in CFU per mL) (E. coli ATCC 25922): bacteriostatic effect at 2-6 hr with regrowth between 6 and 24 hr
- MIC50 (Bacteroides fragilis): 0.25 µg/mL (≈ 0.318 µM)
- MIC90 (Bacteroides fragilis): 0.25 µg/mL (≈ 0.318 µM)
- relative activity among drugs tested (Bacteroides fragilis): meropenem and rifaximin had similar activity
- MIC50 (Bacteroides fragilis; [1]): 0.25 µg/mL (≈ 0.318 µM)
- MIC90 (Bacteroides fragilis; [1]): 0.25 µg/mL (≈ 0.318 µM)
- Mode (Bacteroides fragilis; modal MIC, 30 Bacteroides fragilis clinical isolates): 0.25 µg/mL
- MIC50 (Pseudomonas aeruginosa): 8 µg/mL (≈ 10.2 µM)
- MIC90 (Pseudomonas aeruginosa): 16 µg/mL (≈ 20.4 µM)
- Mode (Pseudomonas aeruginosa): 8 µg/mL
- Cumulative percentage of isolates inhibited at MIC (Pseudomonas aeruginosa; 4 μg/mL): 16.0%
- Number of test isolates at MIC (Pseudomonas aeruginosa; 4 μg/mL): 8
- Cumulative percentage of isolates inhibited at MIC (Pseudomonas aeruginosa; 8 μg/mL): 66.0%
- Number of test isolates at MIC (Pseudomonas aeruginosa; 8 μg/mL): 25
- Cumulative percentage of isolates inhibited at MIC (Pseudomonas aeruginosa; 16 μg/mL): 94.0%
- Number of test isolates at MIC (Pseudomonas aeruginosa; 16 μg/mL): 14
- Cumulative percentage of isolates inhibited at MIC (Pseudomonas aeruginosa; 32 μg/mL): 96.0%
- Number of test isolates at MIC (Pseudomonas aeruginosa; 32 μg/mL): 1
- Cumulative percentage of isolates inhibited at MIC (Pseudomonas aeruginosa; 64 μg/mL): 98.0%
- Number of test isolates at MIC (Pseudomonas aeruginosa; 64 μg/mL): 1
- Cumulative percentage of isolates inhibited at MIC (Pseudomonas aeruginosa; >64 μg/mL): 100.0%
- Number of test isolates at MIC (Pseudomonas aeruginosa; >64 μg/mL): 1
- MIC50 (Enterobacter aerogenes): 16 µg/mL (≈ 20.4 µM)
- MIC90 (Enterobacter aerogenes): 64 µg/mL (≈ 81.4 µM)
- Mode (Enterobacter aerogenes): 16 µg/mL
- Cumulative percentage of isolates inhibited at MIC (Enterobacter aerogenes; 8 μg/mL): 20.0%
- Number of test isolates at MIC (Enterobacter aerogenes; 8 μg/mL): 10
- Cumulative percentage of isolates inhibited at MIC (Enterobacter aerogenes; 16 μg/mL): 64.0%
- Number of test isolates at MIC (Enterobacter aerogenes; 16 μg/mL): 22
- Cumulative percentage of isolates inhibited at MIC (Enterobacter aerogenes; 32 μg/mL): 88.0%
- Number of test isolates at MIC (Enterobacter aerogenes; 32 μg/mL): 12
- Cumulative percentage of isolates inhibited at MIC (Enterobacter aerogenes; 64 μg/mL): 98.0%
- Number of test isolates at MIC (Enterobacter aerogenes; 64 μg/mL): 5
- Cumulative percentage of isolates inhibited at MIC (Enterobacter aerogenes; >64 μg/mL): 100.0%
- Number of test isolates at MIC (Enterobacter aerogenes; >64 μg/mL): 1
- MIC50 (Proteus mirabilis): 4 µg/mL (≈ 5.09 µM)
- MIC90 (Proteus mirabilis): 8 µg/mL (≈ 10.2 µM)
- Mode (Proteus mirabilis): 4 µg/mL
- Cumulative percentage of isolates inhibited at MIC (Proteus mirabilis; 4 μg/mL): 84.0%
- Number of test isolates at MIC (Proteus mirabilis; 4 μg/mL): 42
- Cumulative percentage of isolates inhibited at MIC (Proteus mirabilis; 8 μg/mL): 96.0%
- Number of test isolates at MIC (Proteus mirabilis; 8 μg/mL): 6
- Cumulative percentage of isolates inhibited at MIC (Proteus mirabilis; >64 μg/mL): 100.0%
- Number of test isolates at MIC (Proteus mirabilis; >64 μg/mL): 2

Structure (SMILES): CN[C@H](CC(C)C)C(=O)N[C@H]1C(=O)N[C@@H](CC(N)=O)C(=O)N[C@H]2C(=O)N[C@H]3C(=O)N[C@H](C(=O)N[C@H](C(=O)O)c4cc(O)cc(O)c4-c4cc3ccc4O)[C@H](O)c3ccc(c(Cl)c3)Oc3cc2cc(c3O[C@@H]2O[C@H](CO)[C@@H](O)[C@H](O)[C@H]2O[C@H]2C[C@](C)(N)[C@H](O)[C@H](C)O2)Oc2ccc(cc2Cl)[C@H]1O [vancomycin, Vancomycin]
- CLSI QC range (MIC) (S. pneumoniae ATCC 49619): (0.12-0.5) μg/mL
